Assay results as given in patent publication US20230364204A1, “Bioactive Peptides, Compositions, Production Process, and Use of Bioactive Peptides as Anti-Tumoral Agents” (priority 2022, published 2023).

How the values were obtained:
[1] = system: MDA-MB-231 cells implanted in zebrafish larvae; assay: Zebrafish xenograft model of MDAMB231 (primary tumor and metastasis); format: in vivo; details: 72 h, 3-NantC co-implanted at 75, 100 or 125 mg/mL, Doxorubicin 2.5 µg/mL in embryo water
Method: Transgenic Tg(fli1:EGFP)y1 zebrafish embryos were raised at 28° C. for 48 hours in E3 embryo medium 0.2 mM 1-Phenyl-2-Thiourea aka PTU. […] MDA-MB-231 cells were labeled with Dil red fluorescent dye. Approximately 700 Dil Labeled cancer cells were subcutaneously co-implanted into the perivitelline space of 2 days old larvae ± 3-NantC peptide at […]. Larvae in which tumor cells had been inadvertently injected into circulation or larvae with erroneous implantation of the tumor in the yolk rather than the perivitelline space were excluded from the study. Selected tumor bearing embryos were sorted into experimental groups (20 embryos/group), and pictures of primary tumors were taken right after injection. Doxorubicin treatment was added to embryo water at 2.5 µg/mL according to the study plan. Tumor-bearing embryos were incubated in E3/PTU medium for 72 h at 36° C. After incubation, pictures of the primary tumors and the CVP were taken using a red fluorescent filter. Larvae that died or were lost by other means during the study were excluded from the final analysis.
Images obtained right after implantation (day 0) and after 72 h incubation (day 3) were analyzed by using in-house developed software. Tumor growth regression was calculated and normalized to the negative control group. The number of metastasized cells was counted manually. One-way ANOVA was performed followed by two-tailed Student’s t-test. Definitive outliers were detected using the ROUT method with a Q=1%. Graphs and example images, and experimental data were obtained/analyzed by using GraphPad Prism v9.0.2.

[2] = MTT cell viability, mammary benign cells; format: cell-based; details: human, MCF10A cells (mammary benign cells), read-out: viable cells (MTT)
Method: (§1) For the method of MTT, the cells were plated in 96-well sterile plates for cell culture with a cap at the density of 2 × 10^4 cells/well for treatments lasting 24 h and 1 × 10^4 cells/well for treatments lasting 48 h or more, completing the volume to 100 µL with culture medium. The plates were incubated for 8-16 h in an incubator at 37° C. and 5% CO2. The next day, the treatments were prepared in culture medium, applying 200 µL/well at the desired concentration, and the plates were placed in an incubator at 37° C. and 5% CO2for the duration of treatment. After the treatment period, 20 µL/well of a MTT solution was added in PBS (1×) at a concentration of 5 mg/mL, and the dye was incubated at 37° C. and 5% CO2 for 2.5 h. After incubation with MTT, Formazan salts were solubilized with the addition of 200 µL of dimethylsulfoxide solution (DMSO): isopropanol (3:1) and agitated for at least 15 minutes at room temperature. After complete dissolution of the salts, the absorbance was read in a spectrophotometer at 570 nm with endpoint protocol.
(§2) The calculation of cell viability was performed using the formula: […]
(§3) O.D.: optical density captured by spectrophotometer
(§4) NOTE: The Basal O.D. is the one found in the blank wells.

[3] = system: MDAMB231 cells (triple negative); assay: MTT cell viability, tumor cells; format: cell-based
Method: as §1, §2, §3, §4
In order to determine the efficacy (comparison of doses and times for the MDAMB231 cell line) and safety (comparison between the effects on MDAMB231 and HDFa cells) of the peptide SEQ ID 1 - MFYPDSRCRGPSET (C-terminal region of Crotoxin B), named 3-NAntC, the Analysis of Variance (ANOVA) with Bonferroni post-hoc test was applied to the significance of 5% in GraphPad Prism software version 6.0.

With `COc1cccc2c1C(=O)c1c(O)c3c(c(O)c1C2=O)C[C@@](O)(C(=O)CO)C[C@@H]3O[C@H]1C[C@H](N)[C@H](O)[C@H](C)O1` [Doxorubicin, reference compound] the “decrease of tumor cells (primary tumor)” value [1] was “about 35%”.
In the case of “H-AIPFYAFY-OH [Peptide B, [H)-AIPFYAFY-(OH]]”, the viability at 48 h [2] is reported as roughly 85%.
For “MFYPDSRSRGPSET [SEQ ID 10, 3-NAntC monomer]”, the “compared efficacy in decreasing MDAMB231 cells' viability (MTT, FIG. 13/14)” value ([3]; MDAMB231, SEQ IDs 2-10 compared to SEQ ID 1) was “interesting antitumor effect”.
For “[H]-HLLQ FNKMIKFETRKNAIPF-[OH] (N-terminal HLLQ) [Peptide A, peptide derived from the N-terminal region of Crotoxin B, reference compound]”, the “effect on viability of the tumor cells (MTT), in words” value ([3]; MDAMB231) was “did not decrease the viability”.
